Test [1] concerns CHO. As to the kind of experiment: CHO cell viability loss, potency – luminescence, cytotoxicity control for TLR9-MyD88 binding inhibitor project, dose response (AID 588339).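 Also: CHO cells stably coexpressing TLR9 and MyD88 fusions from primary screen; compound exposure lasted 48 hours before viability readout.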 Format: functional, cell-based, hamster. The settings on record: Cricetulus griseus.
The target in test [2] is T1, Replicative DNA helicase DnaB (Mycobacterium tuberculosis, UniProt P9WMR3).
T1 sequence (P9WMR3 whole entry): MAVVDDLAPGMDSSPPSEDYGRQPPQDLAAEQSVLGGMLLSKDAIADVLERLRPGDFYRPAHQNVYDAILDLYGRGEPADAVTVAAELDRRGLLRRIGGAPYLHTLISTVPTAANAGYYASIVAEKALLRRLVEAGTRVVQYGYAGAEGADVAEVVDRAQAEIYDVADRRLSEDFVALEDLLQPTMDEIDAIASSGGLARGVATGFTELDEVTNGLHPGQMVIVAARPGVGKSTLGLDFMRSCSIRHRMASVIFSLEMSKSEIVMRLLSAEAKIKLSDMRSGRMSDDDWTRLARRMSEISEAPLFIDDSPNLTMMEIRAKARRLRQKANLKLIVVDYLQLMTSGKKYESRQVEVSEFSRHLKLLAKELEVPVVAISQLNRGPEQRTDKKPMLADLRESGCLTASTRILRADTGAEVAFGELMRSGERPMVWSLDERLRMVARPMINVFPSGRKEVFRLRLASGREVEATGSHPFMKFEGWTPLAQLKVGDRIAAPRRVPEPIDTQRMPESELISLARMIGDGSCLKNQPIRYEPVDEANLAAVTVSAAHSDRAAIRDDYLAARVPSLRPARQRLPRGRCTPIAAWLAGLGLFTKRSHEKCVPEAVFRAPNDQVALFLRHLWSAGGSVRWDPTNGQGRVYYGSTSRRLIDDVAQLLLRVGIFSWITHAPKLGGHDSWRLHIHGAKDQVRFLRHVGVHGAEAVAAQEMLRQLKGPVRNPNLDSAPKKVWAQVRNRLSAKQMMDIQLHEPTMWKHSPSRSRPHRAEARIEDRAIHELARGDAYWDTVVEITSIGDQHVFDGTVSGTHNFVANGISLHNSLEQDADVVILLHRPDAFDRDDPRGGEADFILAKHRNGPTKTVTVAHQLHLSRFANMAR
Kind of test: DnaB intein splicing inhibitors, dose response, biochemical, cell-free fluorescence (AID 449749). It is filed as functional.

Test [3] deals with T2, Protein RecA (Mycobacterium tuberculosis, UniProt P9WHJ3).
T2 sequence (P9WHJ3 whole entry): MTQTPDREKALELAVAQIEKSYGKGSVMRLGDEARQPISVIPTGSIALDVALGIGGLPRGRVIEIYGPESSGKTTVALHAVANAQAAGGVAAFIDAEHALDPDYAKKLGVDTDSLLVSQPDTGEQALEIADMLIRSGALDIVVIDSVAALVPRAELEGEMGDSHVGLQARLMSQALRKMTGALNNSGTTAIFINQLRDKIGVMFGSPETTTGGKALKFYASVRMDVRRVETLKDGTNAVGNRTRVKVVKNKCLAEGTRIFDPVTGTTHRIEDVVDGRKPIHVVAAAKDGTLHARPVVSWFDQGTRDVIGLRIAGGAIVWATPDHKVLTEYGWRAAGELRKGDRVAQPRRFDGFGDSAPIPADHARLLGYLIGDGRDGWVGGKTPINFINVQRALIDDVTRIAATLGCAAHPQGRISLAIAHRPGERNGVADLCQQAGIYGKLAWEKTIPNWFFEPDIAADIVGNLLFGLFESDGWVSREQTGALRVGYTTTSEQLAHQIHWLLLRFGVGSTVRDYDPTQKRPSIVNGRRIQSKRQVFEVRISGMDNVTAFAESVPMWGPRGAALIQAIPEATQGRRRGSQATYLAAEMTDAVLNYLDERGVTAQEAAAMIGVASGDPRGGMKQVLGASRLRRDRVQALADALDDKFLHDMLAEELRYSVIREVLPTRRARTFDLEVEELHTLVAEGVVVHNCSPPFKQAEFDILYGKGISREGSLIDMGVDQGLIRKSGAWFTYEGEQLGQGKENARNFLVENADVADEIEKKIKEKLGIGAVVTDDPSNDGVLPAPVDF
As to the kind of experiment: Fluorescence Cell-Free Homogeneous Dose Retest to Identify Inhibitors of RecA-Intein Splicing Activity. [Related pubchem assays (depositor defined):AID2097, AID2223, AID489010, AID492950]. Format: functional.

Test [4] deals with Beta Lactamase (Pseudomonas aeruginosa, UniProt Q932Y6). As to the kind of experiment: BLA reporter interference, concentration series – BLA reporter cells, FRET fluorescence, artefact control for TLR9-MyD88 binding inhibitor project, dose response (AID 588341).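 Also: cell based assay in CHO-K1 cells stably expressing beta-lactamase.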 Format: cell-based.
Test [5] is described as follows: reduction of Shn3 3'UTR-driven luciferase in osteoblasts – cell-based, Clone20 osteoblasts, firefly luciferase, cherry-picked, dose response (AID 624132).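 Also: firefly luciferase luminescence from reporter carrying the Shn3 3'UTR in osteoblasts.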 Format: functional.
Test [6] is described as follows: loss of viability in HepG2 cells – cell-based, CellTiter-Glo, cherry-picked, cytotoxicity control for Shn3 inhibitor project, dose response (AID 624134). Format: functional. Background: In ATP-based viability assays light output follows the ATP content of the culture.
Test [7] is described as follows: non-specific 3'UTR reporter inhibition in Clone20-Shn3RL – cell-based, Renilla luciferase, cherry-picked, counter-screen for Shn3 inhibitor project, dose response (AID 624133). Format: functional. For orientation: A counterscreen serves to expose hits that act by an unwanted route or on another target.
The target in test [8] is T3, Fatty acid synthase (Homo sapiens, UniProt P49327). As to the kind of experiment: inhibition of human FAS-TE enzyme activity – biochemical, endpoint fluorescence intensity, uHTS hits, dose response (AID 624327).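 Also: fluorescence from hydrolysis of an O-methyl fluorescein acyl ester substrate by the enzyme.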 Format: functional.
The target in test [9] is T3, Fatty acid synthase. As to the kind of experiment: inhibition of human FAS-TE enzyme activity – biochemical, kinetic fluorescence intensity, dose response (AID 624326).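 Also: rate of fluorescence rise from hydrolysis of a fluorogenic O-methyl fluorescein ester substrate.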 Format: functional.

Each structure is given as a SMILES string. Calls of active or inactive are those of the source.

T3 sequence (P49327 whole entry): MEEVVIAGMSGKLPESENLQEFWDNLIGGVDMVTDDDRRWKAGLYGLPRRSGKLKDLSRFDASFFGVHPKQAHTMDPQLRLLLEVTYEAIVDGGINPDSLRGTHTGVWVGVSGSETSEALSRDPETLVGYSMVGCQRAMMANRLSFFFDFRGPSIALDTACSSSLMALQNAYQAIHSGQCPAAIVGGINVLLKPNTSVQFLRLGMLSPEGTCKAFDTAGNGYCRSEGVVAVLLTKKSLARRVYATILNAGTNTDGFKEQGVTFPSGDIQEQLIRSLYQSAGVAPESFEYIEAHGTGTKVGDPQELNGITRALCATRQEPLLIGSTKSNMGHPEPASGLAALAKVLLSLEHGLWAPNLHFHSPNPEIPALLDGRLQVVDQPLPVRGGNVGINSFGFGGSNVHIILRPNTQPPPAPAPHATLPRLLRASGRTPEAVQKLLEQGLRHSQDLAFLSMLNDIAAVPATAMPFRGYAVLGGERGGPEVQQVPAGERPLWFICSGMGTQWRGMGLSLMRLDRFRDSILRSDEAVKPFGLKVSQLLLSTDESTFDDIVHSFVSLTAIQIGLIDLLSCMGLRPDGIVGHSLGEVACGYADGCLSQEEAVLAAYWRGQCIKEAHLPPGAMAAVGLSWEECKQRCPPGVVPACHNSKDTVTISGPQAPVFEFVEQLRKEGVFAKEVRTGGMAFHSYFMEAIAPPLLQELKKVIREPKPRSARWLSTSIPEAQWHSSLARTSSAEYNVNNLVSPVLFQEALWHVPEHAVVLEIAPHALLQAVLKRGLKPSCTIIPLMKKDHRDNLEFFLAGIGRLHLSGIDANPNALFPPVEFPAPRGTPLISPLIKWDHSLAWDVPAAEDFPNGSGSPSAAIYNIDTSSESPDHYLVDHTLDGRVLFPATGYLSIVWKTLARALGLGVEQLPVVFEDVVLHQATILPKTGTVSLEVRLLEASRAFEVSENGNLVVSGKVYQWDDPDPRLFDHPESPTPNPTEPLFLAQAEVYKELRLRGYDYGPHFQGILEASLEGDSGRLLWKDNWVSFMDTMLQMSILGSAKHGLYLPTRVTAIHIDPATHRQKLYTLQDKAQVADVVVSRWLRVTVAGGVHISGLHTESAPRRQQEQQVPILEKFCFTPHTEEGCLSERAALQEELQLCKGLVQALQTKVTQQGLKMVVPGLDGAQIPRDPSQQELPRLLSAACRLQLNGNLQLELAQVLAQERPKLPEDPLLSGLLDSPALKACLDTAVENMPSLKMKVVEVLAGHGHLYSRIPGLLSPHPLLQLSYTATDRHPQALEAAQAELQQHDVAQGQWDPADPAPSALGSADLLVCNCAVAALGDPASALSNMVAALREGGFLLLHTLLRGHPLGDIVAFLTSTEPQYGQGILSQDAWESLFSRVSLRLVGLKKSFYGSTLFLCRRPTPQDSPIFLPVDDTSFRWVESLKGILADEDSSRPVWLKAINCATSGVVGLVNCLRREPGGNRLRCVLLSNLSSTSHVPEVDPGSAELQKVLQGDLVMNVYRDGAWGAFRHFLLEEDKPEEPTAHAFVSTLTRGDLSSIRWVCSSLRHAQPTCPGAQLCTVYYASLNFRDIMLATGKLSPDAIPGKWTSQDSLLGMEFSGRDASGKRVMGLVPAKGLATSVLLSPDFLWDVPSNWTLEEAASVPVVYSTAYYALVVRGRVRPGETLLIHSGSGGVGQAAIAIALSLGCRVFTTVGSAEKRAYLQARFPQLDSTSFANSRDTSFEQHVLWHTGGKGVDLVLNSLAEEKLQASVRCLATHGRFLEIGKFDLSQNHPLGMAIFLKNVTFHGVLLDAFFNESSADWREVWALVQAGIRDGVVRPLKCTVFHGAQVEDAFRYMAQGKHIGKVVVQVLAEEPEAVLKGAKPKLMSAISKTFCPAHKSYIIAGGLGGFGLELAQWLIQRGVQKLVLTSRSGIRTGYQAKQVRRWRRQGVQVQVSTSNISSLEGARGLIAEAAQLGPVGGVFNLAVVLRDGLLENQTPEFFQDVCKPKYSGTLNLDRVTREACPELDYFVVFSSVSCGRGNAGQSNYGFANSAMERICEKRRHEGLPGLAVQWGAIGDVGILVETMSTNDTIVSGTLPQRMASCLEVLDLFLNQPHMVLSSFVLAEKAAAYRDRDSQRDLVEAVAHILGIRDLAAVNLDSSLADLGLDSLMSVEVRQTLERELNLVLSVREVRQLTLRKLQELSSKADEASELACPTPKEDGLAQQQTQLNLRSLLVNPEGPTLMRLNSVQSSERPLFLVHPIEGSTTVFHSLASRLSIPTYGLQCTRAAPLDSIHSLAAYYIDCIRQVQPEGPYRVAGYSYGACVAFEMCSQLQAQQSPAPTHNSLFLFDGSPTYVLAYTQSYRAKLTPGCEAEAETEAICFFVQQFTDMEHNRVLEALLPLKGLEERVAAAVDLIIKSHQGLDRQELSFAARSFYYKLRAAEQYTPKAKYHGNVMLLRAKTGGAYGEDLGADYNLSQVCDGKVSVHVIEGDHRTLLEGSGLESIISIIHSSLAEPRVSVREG
Chain of Beta Lactamase (Q932Y6 whole entry): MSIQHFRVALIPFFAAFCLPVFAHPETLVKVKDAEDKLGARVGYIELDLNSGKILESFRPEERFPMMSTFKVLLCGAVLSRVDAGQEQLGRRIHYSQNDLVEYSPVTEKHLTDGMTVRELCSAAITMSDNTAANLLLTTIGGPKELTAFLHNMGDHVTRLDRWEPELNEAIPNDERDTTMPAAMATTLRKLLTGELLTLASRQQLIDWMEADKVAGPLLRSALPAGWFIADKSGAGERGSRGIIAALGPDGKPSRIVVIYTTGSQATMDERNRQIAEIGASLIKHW

With `CCCC(=O)OCCNc1cc(Sc2nc3ccccc3[nH]2)c2nonc2c1[N+](=O)[O-]`, the half-maximal inhibitory concentration (IC50) is 4.59 µM (active) in test [1], 10.9 µM (inactive) in test [4], 2.2 µM (active) in test [8] and 1.34 µM (active) in test [9]. Besides, the half-maximal activity concentration (AC50) in test [2] was 0.855 µM (active); in [5], 6.63 µM (active); in test [6], 24.2 µM (active); in test [7] it was 8.96 µM (active). Also, the EC50 in test [3] is 0.657 µM (active).

One may read the IC50 as the concentration needed to halve the response being measured. Broadly, the AC50 is the concentration giving half of the maximal activity seen. For orientation: EC50 means the concentration that produces a half-maximal response.
